Molecular target: PD-1/PD-L1 interaction (PD-1-Ig / PD-L1-His) (Homo sapiens (Human), UniProt Q9NZQ7)
Experiment: PD-1/PD-L1 Homogenous Time-Resolved Fluorescence (HTRF) binding assay
Details: PD-1/PD-L1 HTRF binding assay; numeric value; read-out: Range or IC50
Source text: The ability of the compounds of formula (I) to bind to PD-L1 was investigated using a PD-1/PD-L1 Homogenous Time-Resolved Fluorescence (HTRF) binding assay.
Homogenous Time-Resolved Fluorescence (HTRF) Binding Assay.
The interaction of PD-1 and PD-L1 can be assessed using soluble, purified preparations of the extracellular domains of the two proteins. The PD-1 and PD-L1 protein extracellular domains were expressed as fusion proteins with detection tags, for PD-1, the tag was the Fc portion of Immunoglobulin (PD-1-Ig) and for PD-L1 it was the 6 histidine motif (PD-L1-His). All binding studies were performed in an HTRF assay buffer consisting of dPBS supplemented with 0.1% […] bovine serum albumin and 0.05% (v/v) Tween-20. For the h/PD-L1-His binding assay, inhibitors were pre-incubated with PD-L1-His (10 nM final) for 15 m in 4 μl of assay buffer, followed by addition of PD-1-Ig (20 nM final) in 1 μl of assay buffer and further incubation for 15 m. HTRF detection was achieved using europium crypate-labeled anti-Ig (1 nM final) and allophycocyanin (APC) labeled anti-His (20 nM final). Antibodies were diluted in HTRF detection buffer and 5 μl was dispensed on top of the binding reaction. […] Additional binding assays were established between the human proteins PD-1-Ig/PD-L2-His (20 & 5 nM, respectively) and CD80-His/PD-L1-Ig (100 & 10 nM, respectively). […]

PD-1/PD-L1 interaction (PD-1-Ig / PD-L1-His), sequence (Q9NZQ7 other isoform, or with tags, fused parts or gaps): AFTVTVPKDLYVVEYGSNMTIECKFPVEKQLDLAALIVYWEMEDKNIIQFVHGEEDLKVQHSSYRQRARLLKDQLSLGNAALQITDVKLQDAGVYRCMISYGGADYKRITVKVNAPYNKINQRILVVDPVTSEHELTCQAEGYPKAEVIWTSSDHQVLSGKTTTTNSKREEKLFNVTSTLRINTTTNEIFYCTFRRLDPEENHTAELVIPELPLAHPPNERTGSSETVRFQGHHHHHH

Question: How did the IC50 turn out when `Cc1c(COc2cc(OCc3cccc(C#N)c3)c(CNC(C(=O)O)C(C)(C)O)cc2Cl)cccc1-c1ccc2c(c1)OCCO2` (centres unmarked) [Example 1210, 2-((5-chloro-2-((3-cyanobenzyl)oxy)-4-((3-(2,3-dihydrobenzo[b][1,4]dioxin-6-yl)-2-methylbenzyl)oxy)benzyl)amino)-3-hydroxy-3-methylbutanoic acid] was run?
Answer: 0.0127 µM

Same assay, conditions: PD-1/PD-L1 HTRF binding assay; value given as range class; read-out: Range or IC50

Question: For `Cc1cc(CN[C@@H](CO)C(=O)O)c(OCc2ccc(F)c(C#N)c2)cc1OCc1cccc(-c2ccc3c(c2)OCCO3)c1C` [Example 1274, (S)-2-((2-((3-cyano-4-fluorobenzyl)oxy)-4-((3-(2,3-dihydrobenzo[b][1,4]dioxin-6-yl)-2-methylbenzyl)oxy)-5-methylbenzyl)amino)-3-hydroxypropanoic acid], which IC50 is on record?
Answer: 0.0006 to 0.01 µM

Question: Which IC50 does the source give for `CC(=O)NCCNCc1ccc(OCc2cccc(-c3ccccc3)c2C)cc1OCc1cc(C(F)(F)F)cc(C(F)(F)F)c1` [Example 1061, N-(2-((2-((3,5-bis(trifluoromethyl)benzyl)oxy)-4-((2-methyl-[1,1′-biphenyl]-3-yl)methoxy)benzyl)amino)ethyl)acetamide] here?
Answer: 0.1 to 20 µM

Question: Which IC50 does the source give for `Cc1c(COc2ccc(CN[C@@H](C(=O)O)[C@H](C)O)c(OCc3cccc(C#N)c3)c2)cccc1-c1ccccc1` [Example 1015, (2R,3S)-2-((2-((3-cyanobenzyl)oxy)-4-((2-methyl-[1,1′-biphenyl]-3-yl)methoxy)benzyl)amino)-3-hydroxybutanoic acid] here?
Answer: 0.0006 to 0.01 µM

Question: `CC(=O)NCCNCc1ccc(OCc2cccc(-c3ccccc3)c2C)cc1OCc1c(F)cccc1F` [Example 1049, N-(2-((2-((2,6-difluorobenzyl)oxy)-4-((2-methyl-[1,1′-biphenyl]-3-yl)methoxy)benzyl)amino)ethyl)acetamide] was tested. Which IC50 did it give?
Answer: 0.1 to 20 µM

Question: For `Cc1c(COc2cc(OCc3cccc(C#N)c3)c(CN3CCCC3C(=O)O)cc2Cl)cccc1-c1ccc2c(c1)OCCO2` (centres unmarked) [Example 1165, 1-(5-chloro-2-((3-cyanobenzyl)oxy)-4-((3-(2,3-dihydrobenzo[b][1,4]dioxin-6-yl)-2-methylbenzyl)oxy)benzyl)pyrrolidine-2-carboxylic acid], which IC50 is on record?
Answer: 0.0006 to 0.01 µM

Question: Which IC50 does the source give for `COC(=O)CCCCOc1cc(OCc2cccc(-c3ccccc3)c2C)ccc1CNCCNC(C)=O` [Example 1032, methyl 5-(2-(((2-acetamidoethyl)amino)methyl)-5-((2-methyl-[1,1′-biphenyl]-3-yl)methoxy)phenoxy)pentanoate] here?
Answer: 0.1 to 20 µM

Question: How did the IC50 turn out when `Cc1c(COc2cc(OCc3cccc(C#N)c3)c(CN(Cc3ccccc3)[C@@H](CO)C(=O)O)cc2Cl)cccc1-c1ccc2c(c1)OCCO2` [Example 1171, (S)-2-(benzyl(5-chloro-2-((3-cyanobenzyl)oxy)-4-((3-(2,3-dihydrobenzo[b][1,4]dioxin-6-yl)-2-methylbenzyl)oxy)benzyl)amino)-3-hydroxypropanoic acid] was run?
Answer: 0.01 to 0.1 µM

Question: `Cc1cc(CNC[C@@H](O)CC(=O)O)c(OCc2cccc(C#N)c2)cc1OCc1cccc(-c2ccc3c(c2)OCCO3)c1C` [Example 1265, (S)-4-((2-((3-cyanobenzyl)oxy)-4-((3-(2,3-dihydrobenzo[b][1,4]dioxin-6-yl)-2-methylbenzyl)oxy)-5-methylbenzyl)amino)-3-hydroxybutanoic acid] was tested. Which IC50 did it give?
Answer: 0.0006 to 0.01 µM

Question: For `CC(=O)NCCNCc1cc(C)c(OCc2cccc(-c3ccc4c(c3)OCCO4)c2C)cc1OCc1cncc(C#N)c1` [Example 1282, N-(2-(2-((5-cyanopyridin-3-yl)methoxy)-4-(3-(2,3-dihydrobenzo[b][1,4]dioxin-6-yl)-2-methylbenzyloxy)-5-methylbenzylamino)ethyl)acetamide], which IC50 is on record?
Answer: 0.0006 to 0.01 µM

Question: For `Cc1c(COc2ccc(CN[C@@H](CO)CC(=O)O)c(OCc3cccc(C#N)c3)c2)cccc1-c1ccc2c(c1)OCCO2` [Example 1129, (R)-3-((2-((3-cyanobenzyl)oxy)-4-((3-(2,3-dihydrobenzo[b][1,4]dioxin-6-yl)-2-methylbenzyl)oxy)benzyl)amino)-4-hydroxybutanoic acid], which IC50 is on record?
Answer: 0.0006 to 0.01 µM

Question: `CCc1cc(CN[C@@](C)(CO)C(=O)O)c(OCc2cccc(C#N)c2)cc1OCc1cccc(-c2ccc3c(c2)OCCO3)c1C` [Example 1290, (S)-2-(2-(3-cyanobenzyloxy)-4-(3-(2,3-dihydrobenzo[b][1,4]dioxin-6-yl) -2-methylbenzyloxy)-5-ethylbenzylamino)-3-hydroxy-2-methylpropanoic acid] was tested. Which IC50 did it give?
Answer: 0.0006 to 0.01 µM

Question: How did the IC50 turn out when `Cc1c(COc2cc(OCc3cncc(C#N)c3)c(CN3CCCC[C@H]3C(=O)NS(C)(=O)=O)cc2Cl)cccc1-c1ccc2c(c1)OCCO2` [Example 1256, (S)-1-(5-chloro-2-((5-cyanopyridin-3-yl)methoxy)-4-((3-(2,3-dihydrobenzo[b][1,4]dioxin-6-yl)-2-methylbenzyl)oxy)benzyl)-N-(methylsulfonyl)piperidine-2-carboxamide] was run?
Answer: 0.0006 to 0.01 µM

Question: `Cc1c(COc2cc(OCc3cccc(C#N)c3)c(CNC(Cc3c[nH]c4ccc(O)cc34)C(=O)O)cc2Cl)cccc1-c1ccc2c(c1)OCCO2` (centres unmarked) [Example 1167, 2-((5-chloro-2-((3-cyanobenzyl)oxy)-4-((3-(2,3-dihydrobenzo[b][1,4]dioxin-6-yl)-2-methylbenzyl)oxy)benzyl)amino)-3-(5-hydroxy-1H-indol-3-yl)propanoic acid] was tested. Which IC50 did it give?
Answer: 0.01 to 0.1 µM

Question: Which IC50 does the source give for `Cc1cc(CNC[C@@H](O)CC(=O)O)c(OCc2cncc(C#N)c2)cc1OCc1cccc(-c2ccc3c(c2)OCCO3)c1C#N` [Example 1307, (S)-4-(4-(2-cyano-3-(2,3-dihydrobenzo[b][1,4]dioxin-6-yl)benzyloxy)-2-((5-cyanopyridin-3-yl)methoxy)-5-methylbenzylamino)-3-hydroxybutanoic acid] here?
Answer: 0.0006 to 0.01 µM

Question: For `CC(=O)NCCNCc1cc(Br)c(OCc2cccc(-c3ccc4c(c3)OCCO4)c2C#N)cc1OCc1cccc(C#N)c1` [Example 1315, N-(2-((5-bromo-4-((2-cyano-3-(2,3-dihydrobenzo[b][1,4]dioxin-6-yl)benzyl)oxy)-2-((3-cyanobenzyl)oxy)benzyl)amino)ethyl)acetamide], which IC50 is on record?
Answer: 0.0006 to 0.01 µM

Question: For `Cc1c(COc2ccc(CNC[C@@H](O)CC(=O)O)c(OCc3cccc(C#N)c3)c2Cl)cccc1-c1ccc2c(c1)OCCO2` [Example 1240, (S)-4-((3-chloro-2-((3-cyanobenzyl)oxy)-4-((3-(2,3-dihydrobenzo[b][1,4]dioxin-6-yl)-2-methylbenzyl)oxy)benzyl)amino)-3-hydroxybutanoic acid], which IC50 is on record?
Answer: 0.1 to 20 µM

Question: For `Cc1c(COc2ccc(CNC(C)(CO)C(=O)O)c(OCc3cccc(C#N)c3)c2)cccc1-c1ccccc1` (centres unmarked) [Example 1014, 2-((2-((3-cyanobenzyl)oxy)-4-((2-methyl-[1,1′-biphenyl]-3-yl)methoxy)benzyl)amino)-3-hydroxy-2-methylpropanoic acid], which IC50 is on record?
Answer: 0.0006 to 0.01 µM

Question: Which IC50 does the source give for `Cc1c(COc2cc(OCc3cncc(C#N)c3)c(CN3CCCC[C@H]3C(=O)O)cc2Br)cccc1-c1ccc2c(c1)OCCO2` [Example 1319, (S)-1-(5-bromo-2-((5-cyanopyridin-3-yl)methoxy)-4-(3-(2,3-dihydrobenzo[b][1,4]dioxin-6-yl)-2-methylbenzyloxy)benzyl)piperidine-2-carboxylic acid] here?
Answer: 0.0006 to 0.01 µM

Question: Which IC50 does the source give for `CC(=O)NCCNCc1ccc(OCc2cccc(-c3ccccc3)c2C)cc1OCc1cc(F)cc(OC(F)(F)F)c1` [Example 1106, N-(2-((2-((3-fluoro-5-(trifluoromethoxy)benzyl)oxy)-4-((2-methyl-[1,1′-biphenyl]-3-yl)methoxy)benzyl)amino)ethyl)acetamide] here?
Answer: 0.1 to 20 µM
